Results: ChEMBL document CHEMBL4346660, “Cryptolepine and aromathecin based mimics as potent G-quadruplex-binding, DNA-cleavage and anticancer agents: Design, synthesis and DNA targeting-induced apoptosis” (Eur J Med Chem, 2019)
Calls of active or inactive are those of the source. No cut-off for these calls is given here.

Key:
Calf thymus DNA [1] = assay: Binding affinity to calf thymus DNA at 10 uM incubated for 5 mins by CD spectroscopy; format: nucleic-acid assay; conditions: Bos taurus
MGC-803 [2] = assay: Induction of apoptosis in human MGC803 cells assessed as viable cells at 2.5 uM incubated for 24 hrs by Annexin V-FITC/propidium iodide staining based flow cytometry (reference value: 96.53+/-2.11%); format: functional; conditions: MGC-803, 24 h, read-out: Activity
MGC-803 [3] = assay: Induction of mitochondrial membrane depolarization in human MGC803 cells at 0.5 uM incubated for 24 hrs by JC-1 dye-based flow cytometric analysis (Rvb 3.37%); format: functional
MGC-803 [4] = assay: Induction of apoptosis in human MGC803 cells assessed as early apoptotic cells at 1 uM incubated for 24 hrs by Annexin V-FITC/propidium iodide staining based flow cytometry (reference value: 0.97 +/- 0.10 %); format: functional
Calf thymus DNA [5] = assay: Inhibition of ethidium bromide binding to calf thymus DNA assessed as Stern-Volmer quenching constant by fluorescence spectra analysis; format: nucleic-acid assay; conditions: Bos taurus
MGC-803 [6] = assay: Cell cycle arrest in human MGC803 cells assessed as change in cyclin A2 expression at 0.5 to 2.5 uM incubated for 24 hrs by immunoblot analysis; format: functional, cell-based
Quadruplex DNA [7] = assay: Binding affinity to human Pu27 G-quadruplex DNA at 10 uM incubated for 5 mins by CD spectroscopy; format: nucleic-acid assay
MGC-803 [8] = assay: Cell cycle arrest in human MGC803 cells assessed as down regulation of CDK2 expression at 0.5 to 2.5 uM incubated for 24 hrs by immunoblot analysis; format: functional, cell-based
MGC-803 [9] = assay: Induction of apoptosis in human MGC803 cells assessed as activated caspase-9 level at 2.5 uM after 24 hrs by FITC staining-based flow cytometric analysis (Rvb= 3.14%); format: functional
NCI-H460 = assay: Antiproliferative activity against human NCI-H460 cells assessed as reduction in cell viability incubated for 48 hrs by MTT assay; format: functional, cell-based; conditions: NCI-H460, 48 h
MGC-803 [10] = assay: Induction of DNA damage in human MGC803 cells assessed as increase in gamma-H2AX expression at 2.5 uM after 24 hrs by Western blot analysis; format: functional, cell-based
MGC-803 [11] = assay: Induction of mitochondrial membrane potential loss in human MGC803 cells at 0.5 to 2.5 uM measured after 24 by JC1 staining-based microscopic analysis; format: functional, cell-based
MGC-803 [12] = assay: Cell cycle arrest in human MGC803 cells assessed as accumulation of cells at G2/M phase at 2.5 uM incubated for 48 hrs by propidium iodide staining-based flow cytometry (reference value: 13.07%); format: functional
T-24 = assay: Antiproliferative activity against human T24 cells assessed as reduction in cell viability incubated for 48 hrs by MTT assay; format: functional, cell-based; conditions: T-24, 48 h
MGC-803 [13] = assay: Induction of apoptosis in human MGC803 cells assessed as decrease in Bcl-xL expression at 0.5 to 2.5 uM after 24 hrs by Western blot analysis; format: functional, cell-based
DNA = assay: Binding affinity to Escherichia coli supercoiled pBR322 DNA assessed as DNA intercalation at 0.5 to 10 uM after 3 hrs by ethidium bromide staining-based agarose gel electrophoresis analysis; format: nucleic-acid assay
Calf thymus DNA [14] = assay: Binding affinity to calf thymus DNA assessed as hyperchromic effect at 10:1 compound to DNA ratio incubated for 5 mins by UV-Vis spectroscopy; format: nucleic-acid assay; conditions: Bos taurus
MGC-803 [15] = assay: Cell cycle arrest in human MGC803 cells assessed as accumulation of cells at G1 phase at 2.5 uM incubated for 48 hrs by propidium iodide staining-based flow cytometry (reference value: 53.96%); format: functional
MGC-803 [16] = assay: Cell cycle arrest in human MGC803 cells assessed as accumulation of cells at G2/M phase at 1 uM incubated for 48 hrs by propidium iodide staining-based flow cytometry (reference value: 13.07%); format: functional
MGC-803 [17] = assay: Induction of apoptosis in human MGC803 cells assessed as cell shrinkage at 0.5 to 2.5 uM after 24 hrs by Hoechst 33258 staining-based fluorescence microscopic method; format: functional
MGC-803 [18] = assay: Induction of apoptosis in human MGC803 cells assessed as appearance of irregular cell shape at 2.5 uM after 24 hrs by Hoechst 33258 staining-based fluorescence microscopic method; format: functional
MGC-803 [19] = assay: Induction of apoptosis in human MGC803 cells assessed as viable cells at 1 uM incubated for 24 hrs by Annexin V-FITC/propidium iodide staining based flow cytometry (reference value: 96.53+/-2.11%); format: functional; conditions: MGC-803, 24 h, read-out: Activity
MGC-803 [20] = assay: Cell cycle arrest in human MGC803 cells assessed as increase in p21 expression at 0.5 to 2.5 uM incubated for 24 hrs by Western blot analysis; format: functional, cell-based
Quadruplex DNA [21] = assay: Binding affinity to human HTG21 G-quadruplex DNA assessed as Stern-Volmer quenching constant by fluorometric titration assay; format: nucleic-acid assay
MGC-803 [22] = assay: Cell cycle arrest in human MGC803 cells assessed as change in cyclin E2 expression at 0.5 to 2.5 uM incubated for 24 hrs by immunoblot analysis; format: functional, cell-based
MGC-803 [23] = assay: Induction of apoptosis in human MGC803 cells assessed as necrotic cells at 0.5 uM incubated for 24 hrs by Annexin V-FITC/propidium iodide staining based flow cytometry (reference value: 1.81 +/- 0.09 %); format: functional
HepG2 = assay: Antiproliferative activity against human HepG2 cells assessed as reduction in cell viability incubated for 48 hrs by MTT assay; format: functional, cell-based; conditions: HepG2, 48 h
MGC-803 [24] = assay: Cell cycle arrest in human MGC803 cells assessed as accumulation of cells at G1 phase at 1 uM incubated for 48 hrs by propidium iodide staining-based flow cytometry (reference value: 53.96%); format: functional
MGC-803 [25] = assay: Cell cycle arrest in human MGC803 cells assessed as accumulation of cells at G2/M phase incubated for 48 hrs by propidium iodide staining-based flow cytometry; format: functional
MGC-803 [26] = assay: Cell cycle arrest in human MGC803 cells assessed as accumulation of cells at G1 phase at 0.5 uM incubated for 48 hrs by propidium iodide staining-based flow cytometry (reference value: 53.96%); format: functional
MGC-803 [27] = assay: Induction of apoptosis in human MGC803 cells assessed as necrotic cells at 2.5 uM incubated for 24 hrs by Annexin V-FITC/propidium iodide staining based flow cytometry (reference value: 1.81 +/- 0.09 %); format: functional

With CN(C)CCCNc1c2c(nc3ccc(F)cc13)-c1ccccc1C2 the Activity (Calf thymus DNA [1]) was “Active”, the viability at 2.5 µM (MGC-803 [2]) was 37.3% and the Activity (MGC-803 [3]) was 23.6%. For the same molecule, the Activity (MGC-803 [4]) was 22%, the Kq (Calf thymus DNA [5]) was 5.92 ×10⁴ No_unit and the Activity (MGC-803 [6]) was “inactive”. The Activity (Quadruplex DNA [7]) was “Active”, the Activity (MGC-803 [8]) was “Active” and the Activity (MGC-803 [9]) was 46.9%. The IC50 (NCI-H460) was 1960 nM, the Activity (MGC-803 [10]) was “Active” and the Activity (MGC-803 [11]) was “Active”. For the same molecule, the Activity (MGC-803 [12]) was 31.82%, the IC50 (T-24) was 840 nM and the Activity (MGC-803 [13]) was “Active”. The Activity (DNA) was “Active”, the Activity (Calf thymus DNA [14]) was “Active” and the Activity (MGC-803 [15]) was 8.74%. For the same molecule, the Activity (MGC-803 [16]) was 23.02%, the Activity (MGC-803 [17]) was “Active” and the Activity (MGC-803 [18]) was “Active”. The viability at 1 µM (MGC-803 [19]) was 58.3%, the Activity (MGC-803 [20]) was “Active” and the Kq (Quadruplex DNA [21]) was 1.56 ×10⁷ No_unit. For the same molecule, the Activity (MGC-803 [22]) was “inactive”, the Activity (MGC-803 [23]) was 1.76% and the IC50 (HepG2) was 1770 nM. The Activity (MGC-803 [24]) was 24.11%, the Activity (MGC-803 [25]) was “Dose-dependent effect” and the Activity (MGC-803 [26]) was 51.5%. The Activity (MGC-803 [27]) was 4.01%.
